# Laboratory results published in ChEMBL document CHEMBL1201862, “PubChem BioAssay data set” (2004).
# Active and inactive are the calls of the source.
# Columns and labels:
# fMet-Leu-Phe receptor = biological target: T1, fMet-Leu-Phe receptor (Homo sapiens, UniProt P21462); assay: formyl peptide receptor binders – dose response (AID 519); assay type: functional
# T1 sequence (P21462 whole entry): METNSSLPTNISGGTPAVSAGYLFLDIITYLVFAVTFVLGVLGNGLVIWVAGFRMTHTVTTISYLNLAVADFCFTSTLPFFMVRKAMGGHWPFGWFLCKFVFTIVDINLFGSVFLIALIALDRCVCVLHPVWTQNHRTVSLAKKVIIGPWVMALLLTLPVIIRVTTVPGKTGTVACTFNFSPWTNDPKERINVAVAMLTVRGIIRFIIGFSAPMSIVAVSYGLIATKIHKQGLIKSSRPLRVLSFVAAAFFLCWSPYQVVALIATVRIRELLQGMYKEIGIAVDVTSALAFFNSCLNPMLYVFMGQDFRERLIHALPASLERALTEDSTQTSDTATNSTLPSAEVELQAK
# [1] = viability loss in THP-1 monocytes – THP-1 cells, cytotoxicity control for Vif-APOBEC3G degradation inhibitor project, dose response (AID 1117359); assay type: functional; settings: THP-1
# [2] = HEK-293T viability loss after treatment – luminescence, T-cell screen hits, cytotoxicity control for TCR NF-kB inhibitor project, dose response (AID 489026); assay type: functional, cell-based;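 further: cells exposed to compound about 14 hours before the viability readout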
# [3] = biological target: T2, COUP transcription factor 2 (Homo sapiens, UniProt P24468); assay: Luminescence-based cell-based high throughput dose response assay to identify inhibitors of COUP-TFII (NR2F2).; assay type: functional;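 further: HEK293 cells transiently cotransfected with COUP-TFII expression vector and reporter; luciferase reporter luminescence driven by COUP-TFII from the pX2-168 reporter plasmid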
# T2 sequence (P24468 whole entry): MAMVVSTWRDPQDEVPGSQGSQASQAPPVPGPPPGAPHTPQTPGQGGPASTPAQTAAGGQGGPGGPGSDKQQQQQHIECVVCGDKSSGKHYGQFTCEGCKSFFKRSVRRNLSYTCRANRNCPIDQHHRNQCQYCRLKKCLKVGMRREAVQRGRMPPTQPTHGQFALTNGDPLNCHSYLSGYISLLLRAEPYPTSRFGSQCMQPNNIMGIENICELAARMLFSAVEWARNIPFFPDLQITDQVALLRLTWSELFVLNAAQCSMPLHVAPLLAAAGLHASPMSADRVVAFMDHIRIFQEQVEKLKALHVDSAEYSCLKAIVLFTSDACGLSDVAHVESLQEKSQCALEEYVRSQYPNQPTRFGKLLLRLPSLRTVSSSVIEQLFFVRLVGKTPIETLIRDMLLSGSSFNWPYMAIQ
# INS1 = assay: INS-1E survival protection against cytokine death – cell-based, luminescence, retest, dose response (AID 449756); assay type: functional; settings: Rattus norvegicus;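 further: cell death triggered by IL-1 beta plus TNF-alpha plus IFN-gamma mixture; protective hits raise ATP signal compared with cytokine alone wells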
# Caspase-6 = biological target: T3, Caspase-6 (Homo sapiens, UniProt P55212); assay: inhibition of CASP6 peptide cleavage – biochemical, VEID-R110 fluorescence, cherry-pick, dose response (AID 720632)
# T3 sequence (P55212 whole entry): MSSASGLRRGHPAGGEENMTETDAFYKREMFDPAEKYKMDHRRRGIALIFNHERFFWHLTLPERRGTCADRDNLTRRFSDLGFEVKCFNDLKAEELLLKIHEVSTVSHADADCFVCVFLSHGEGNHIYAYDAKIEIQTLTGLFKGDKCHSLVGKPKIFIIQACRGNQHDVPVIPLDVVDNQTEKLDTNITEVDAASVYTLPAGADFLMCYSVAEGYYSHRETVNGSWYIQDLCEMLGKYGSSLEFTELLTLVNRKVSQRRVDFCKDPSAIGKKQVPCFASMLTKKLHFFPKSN
# [4] = biological target: T4, Endoribonuclease toxin MazF (Escherichia coli K-12, UniProt P0AE70); assay: substrate-only fluorescence increase artefacts – biochemical, single-stranded RNase substrate, counter-screen for MazEF activator project, dose response (AID 588502); assay type: functional
# T4 sequence (P0AE70 whole entry): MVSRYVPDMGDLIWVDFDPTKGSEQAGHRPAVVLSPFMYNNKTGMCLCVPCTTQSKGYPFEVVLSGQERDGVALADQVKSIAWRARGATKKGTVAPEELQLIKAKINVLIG
# [5] = biological target: T4, Endoribonuclease toxin MazF; assay: activation of MazEF endoribonuclease cleavage – biochemical, fluorescence, single-stranded RNA substrate, uHTS hits, dose response (AID 588481); assay type: functional
# cells [6] = assay type: functional, cell-based
# cells [7] = assay type: functional, cell-based; remark: listed apart in the source
# [8] = HIV-1 Vif–A3G interaction blockers – biochemical, TR-FRET, GST-Vif 1-94, biotin-A3G peptide, dose response retest, primary screen (AID 1117319); assay type: functional;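 further: TR-FRET signal of purified GST-Vif binding a biotinylated A3G peptide; inhibitors lower the FRET signal by blocking Vif and A3G binding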
# Genome polyprotein = Genome polyprotein (dengue virus type 2, UniProt P29990); assay: flavivirus cap methylation enzyme inhibition – biochemical, confirmation dose response, primary screen (AID 588689); assay type: functional
# Chain of Genome polyprotein (P29990 2492-3391 limits assumed): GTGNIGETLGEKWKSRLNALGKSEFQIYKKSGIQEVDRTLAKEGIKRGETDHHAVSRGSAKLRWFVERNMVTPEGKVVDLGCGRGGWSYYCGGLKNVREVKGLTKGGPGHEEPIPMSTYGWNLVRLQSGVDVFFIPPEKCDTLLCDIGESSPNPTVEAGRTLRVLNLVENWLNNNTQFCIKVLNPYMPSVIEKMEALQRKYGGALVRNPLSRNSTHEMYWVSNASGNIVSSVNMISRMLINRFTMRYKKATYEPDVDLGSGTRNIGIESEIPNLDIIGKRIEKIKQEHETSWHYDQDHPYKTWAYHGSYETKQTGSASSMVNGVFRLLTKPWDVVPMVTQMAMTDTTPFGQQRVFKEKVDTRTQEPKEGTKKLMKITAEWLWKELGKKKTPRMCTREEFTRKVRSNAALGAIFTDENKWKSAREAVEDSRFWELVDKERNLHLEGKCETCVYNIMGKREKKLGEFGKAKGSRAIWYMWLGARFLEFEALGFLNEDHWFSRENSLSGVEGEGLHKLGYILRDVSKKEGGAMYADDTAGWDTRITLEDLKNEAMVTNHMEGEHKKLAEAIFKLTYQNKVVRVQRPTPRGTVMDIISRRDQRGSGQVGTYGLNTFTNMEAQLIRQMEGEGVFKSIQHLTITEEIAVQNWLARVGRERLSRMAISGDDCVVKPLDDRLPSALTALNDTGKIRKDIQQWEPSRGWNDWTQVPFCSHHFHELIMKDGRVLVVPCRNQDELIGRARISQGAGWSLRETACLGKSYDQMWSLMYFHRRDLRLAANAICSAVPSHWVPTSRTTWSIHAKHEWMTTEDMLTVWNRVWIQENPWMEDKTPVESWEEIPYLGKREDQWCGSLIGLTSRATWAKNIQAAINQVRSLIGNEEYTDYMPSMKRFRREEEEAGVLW
# [9] = biological target: T5, Apoptotic protease-activating factor 1 (Homo sapiens, UniProt O14727); assay type: functional
# T5 sequence (O14727 whole entry): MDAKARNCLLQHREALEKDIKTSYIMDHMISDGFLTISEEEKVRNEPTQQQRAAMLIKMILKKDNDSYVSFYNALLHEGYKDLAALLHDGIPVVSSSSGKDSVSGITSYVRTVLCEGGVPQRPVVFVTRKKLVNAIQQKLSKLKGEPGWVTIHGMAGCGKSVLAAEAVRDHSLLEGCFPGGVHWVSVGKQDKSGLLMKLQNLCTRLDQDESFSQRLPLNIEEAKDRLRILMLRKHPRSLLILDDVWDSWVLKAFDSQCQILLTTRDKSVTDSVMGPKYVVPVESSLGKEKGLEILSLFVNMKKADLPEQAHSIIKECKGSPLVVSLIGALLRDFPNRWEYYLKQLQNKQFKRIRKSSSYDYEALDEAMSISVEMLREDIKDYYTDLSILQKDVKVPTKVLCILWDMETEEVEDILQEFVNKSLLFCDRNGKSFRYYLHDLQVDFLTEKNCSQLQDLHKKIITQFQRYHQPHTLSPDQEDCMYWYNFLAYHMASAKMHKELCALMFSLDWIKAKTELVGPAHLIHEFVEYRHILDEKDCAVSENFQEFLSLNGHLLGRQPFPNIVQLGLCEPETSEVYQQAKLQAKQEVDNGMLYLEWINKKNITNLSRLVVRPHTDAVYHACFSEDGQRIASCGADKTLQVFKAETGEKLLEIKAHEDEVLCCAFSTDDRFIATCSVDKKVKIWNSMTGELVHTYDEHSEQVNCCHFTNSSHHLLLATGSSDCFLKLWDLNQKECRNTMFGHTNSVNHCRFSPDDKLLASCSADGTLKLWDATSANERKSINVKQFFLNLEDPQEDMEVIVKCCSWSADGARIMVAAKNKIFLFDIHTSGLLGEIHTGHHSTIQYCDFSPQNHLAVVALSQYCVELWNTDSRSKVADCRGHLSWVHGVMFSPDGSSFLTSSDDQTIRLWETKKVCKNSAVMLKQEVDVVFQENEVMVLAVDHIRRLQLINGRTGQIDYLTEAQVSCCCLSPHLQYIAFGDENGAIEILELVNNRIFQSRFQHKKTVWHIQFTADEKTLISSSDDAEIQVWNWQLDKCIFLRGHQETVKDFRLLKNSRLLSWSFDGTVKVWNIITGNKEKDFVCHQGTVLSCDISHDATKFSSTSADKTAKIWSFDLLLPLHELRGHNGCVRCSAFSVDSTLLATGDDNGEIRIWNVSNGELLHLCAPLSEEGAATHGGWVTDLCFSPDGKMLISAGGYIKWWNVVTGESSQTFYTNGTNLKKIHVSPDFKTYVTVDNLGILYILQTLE
# [10] = biological target: Induced myeloid leukemia cell differentiation protein Mcl-1 (Homo sapiens, UniProt Q07820); assay type: functional
# Chain of Induced myeloid leukemia cell differentiation protein Mcl-1 (Q07820 whole entry): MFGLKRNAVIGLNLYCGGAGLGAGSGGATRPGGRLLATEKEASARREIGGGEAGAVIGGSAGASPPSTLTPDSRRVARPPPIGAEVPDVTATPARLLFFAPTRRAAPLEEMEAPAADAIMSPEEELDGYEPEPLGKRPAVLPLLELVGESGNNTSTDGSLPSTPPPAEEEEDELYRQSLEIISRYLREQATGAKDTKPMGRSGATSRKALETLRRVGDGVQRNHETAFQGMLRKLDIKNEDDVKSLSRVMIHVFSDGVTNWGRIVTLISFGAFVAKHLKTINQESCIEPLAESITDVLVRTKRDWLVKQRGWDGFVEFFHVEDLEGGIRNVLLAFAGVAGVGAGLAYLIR
# [11] = Luminescence-based cell-based high throughput dose response assay to identify activators of the DAF-12 from the parasite S. stercoralis (ssDAF-12).; assay type: functional
# Nonstructural protein 1 = Nonstructural protein 1 (Influenza A virus, UniProt Q194T2); assay type: functional, Influenza A virus (A/California/07/2009(H1N1))
# Chain of Nonstructural protein 1 (Q194T2 whole entry): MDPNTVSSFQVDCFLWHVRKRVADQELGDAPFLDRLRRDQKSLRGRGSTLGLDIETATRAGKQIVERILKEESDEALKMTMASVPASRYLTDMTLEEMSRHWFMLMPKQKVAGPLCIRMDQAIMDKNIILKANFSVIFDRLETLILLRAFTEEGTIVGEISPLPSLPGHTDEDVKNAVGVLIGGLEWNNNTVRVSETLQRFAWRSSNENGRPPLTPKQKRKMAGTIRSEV
# [12] = biological target: T6, Rac GTPase-activating protein 1 (Homo sapiens, UniProt Q9H0H5); assay: blockers of MgcRacGAP-driven Rac1 GTP hydrolysis – biochemical, ADP Hunter fluorescence, primary and confirmatory, confirmation (AID 624330); assay type: functional
# T6 sequence (Q9H0H5 whole entry): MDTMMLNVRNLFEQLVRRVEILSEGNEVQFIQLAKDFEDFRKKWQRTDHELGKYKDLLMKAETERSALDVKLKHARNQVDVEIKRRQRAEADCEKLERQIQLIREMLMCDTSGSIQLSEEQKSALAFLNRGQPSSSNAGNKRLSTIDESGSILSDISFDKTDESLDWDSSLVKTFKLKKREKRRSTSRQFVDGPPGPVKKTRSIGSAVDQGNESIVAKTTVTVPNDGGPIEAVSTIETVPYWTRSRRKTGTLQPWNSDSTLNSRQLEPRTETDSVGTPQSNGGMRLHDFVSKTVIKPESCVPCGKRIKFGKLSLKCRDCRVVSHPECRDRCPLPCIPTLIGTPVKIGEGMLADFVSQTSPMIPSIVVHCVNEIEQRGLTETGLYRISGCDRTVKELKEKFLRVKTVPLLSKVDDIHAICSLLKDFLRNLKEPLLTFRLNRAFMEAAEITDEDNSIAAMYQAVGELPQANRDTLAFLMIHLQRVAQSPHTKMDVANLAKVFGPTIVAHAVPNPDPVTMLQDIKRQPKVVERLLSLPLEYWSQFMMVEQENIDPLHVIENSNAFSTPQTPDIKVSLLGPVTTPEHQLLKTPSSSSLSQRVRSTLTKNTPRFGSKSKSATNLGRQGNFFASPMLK
# [13] = activation of miR-122 Renilla sensor silencing – cell-based, Huh7 psiCHECK-miR122, Renilla luciferase, cherry-picked, dose response (AID 651956); assay type: functional;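 further: huh7 hepatoma cells stably carrying a psiCHECK-2 miR-122 sensor plasmid; renilla luciferase signal reporting endogenous miR-122 activity after 48 h compound exposure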
# [14] = blockers of HIV-1 envelope-mediated cell-cell fusion – cherry-pick, dose response (AID 652057); assay type: functional, cell-based
# [15] = blockers of HIV-1 ZM109 envelope-driven cell-cell fusion – HeLa effector, CEM target cells, luciferase, cherry-pick, dose response (AID 652058); assay type: functional, cell-based;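 further: luciferase signal from HIV-1 Env mediated cell-cell fusion of effector and target cells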
# [16] = HIV-1 AD8 envelope cell-cell fusion blockers – cherry-pick, dose response (AID 652062); assay type: functional, cell-based;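 further: luciferase signal from cell-cell fusion driven by HIV-1 clade B AD8 Env; potency is for inhibitors of fusion seen as a drop in luminescence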
# [17] = P. falciparum Dd2 growth inhibitors, dose response, SYBR Green, cherry-picked samples (AID 1159567); assay type: functional, cell-based
smiles,measurement,setting,value
O=C(O)CC1Oc2ccc(Cl)cc2NC1=O (stereo not given),Ki,fMet-Leu-Phe receptor,> 66.7 µM (inactive)
O=C(NNc1cc(Cl)cc(Cl)c1)c1c(F)cccc1Cl,CC50,[1],> 40 µM (active)
Cc1ccc(S(=O)(=O)NCc2ccncc2)c(C)c1C,IC50,[2],> 80 µM (inactive)
same,IC50,[3],5.99 µM (active)
same,AC50,INS1,2.48 µM (active)
COCCN(C(=O)c1cc2c(s1)CCC2)c1c(N)n(CC(C)C)c(=O)[nH]c1=O,AC50,Caspase-6,22.4 µM (active)
COc1ccc2nc(SCC(=O)N3CC(=O)Nc4ccccc43)c(C#N)cc2c1,EC50,[4],> 99 µM (inactive)
same,EC50,[5],> 99 µM (inactive)
O=C(Cn1cnc2c(oc3ccccc32)c1=O)NCCc1ccccc1,EC50,cells [6],> 29.9 µM (inactive)
same,IC50,cells [7],> 29.9 µM (inactive)
O=C1c2ccccc2C(=O)N1CCC(c1ccc(F)cc1)c1ccco1 (stereo not given),IC50,[8],> 100 µM (active)
O=S(=O)(c1c[nH]cn1)N1CCc2ccccc21,Ki,fMet-Leu-Phe receptor,> 66.7 µM (inactive)
CCc1ccc[n+](-c2nc3ccccc3nc2[C-](C#N)C#N)c1,EC50,[4],> 99 µM (inactive)
same,EC50,[5],59.2 µM (inactive)
COC(=O)CCC(=O)OC1(C)C(=O)C2=CN(C3CCCC3)C(c3ccc(OC)cc3)=CC2=C(Br)C1=O (stereo not given),IC50,Genome polyprotein,33.8 µM (active)
same,IC50,[9],17.4 µM (active)
c1ccc(CCc2nn3c(C4COc5ccccc5O4)nnc3s2)cc1 (stereo not given),CC50,[1],> 40 µM (active)
COc1cc(C2Nc3cccc4cccc(c34)N2)cc(OC)c1OC(C)=O,CC50,[1],> 40 µM (active)
same,IC50,[10],2.8 µM (active)
CC(C)(C)n1nc2c(c1NC(=O)c1ccc(Br)o1)C[S+]([O-])C2 (stereo not given),IC50,[8],> 100 µM (active)
CCCCC1=CC2=C(c3ccco3)C(=O)C(C)(OC(=O)c3ccc(OC)cc3)C(=O)C2=CN1CCCCO (stereo not given),IC50,[8],> 100 µM (active)
COc1ccc(-n2c(=O)[nH]c3ccccc3c2=O)c(OC)c1,IC50,[8],> 100 µM (active)
C=CCOc1ccc(C2C(C(=O)c3ccco3)=C(O)C(=O)N2Cc2cccnc2)cc1 (stereo not given),Ki,fMet-Leu-Phe receptor,9.7 µM (active)
CCOC(=O)Nc1ccc(OC)cc1S(=O)(=O)N1CCCCC1,Ki,fMet-Leu-Phe receptor,> 66.7 µM (inactive)
CCC(C)N1C(=O)/C(=C\c2ccc(N3CCCCCC3)cc2)C(=O)NC1=S (stereo not given),IC50,[11],> 67.5 µM (inactive)
O=C(O)CCNc1cc(N2CCN(C(=O)c3ccco3)CC2)c2noc3c2c1C(=O)c1ccccc1-3,IC50,[9],21.4 µM (active)
same,IC50,Nonstructural protein 1,26.9 µM (active)
Cc1cc(NC2CCCC2)n2ncc(-c3ccccc3)c2n1,IC50,[3],49.3 µM (inactive)
COc1cc(/C=N/Nc2ccc(C(=O)O)cc2)ccc1O,AC50,Caspase-6,11.1 µM (active)
same,IC50,[12],39.9 µM (active)
CCN(C[C@H]1[C@H](c2ccccc2)[C@@H](CO)N1C(=O)C1CC1)C(=O)NC1CCCC1,AC50,[13],47.8 µM (active)
CCN(C[C@@H]1[C@@H](c2ccc(C3=CCCCC3)cc2)[C@@H](CO)N1CC1CC1)C(C)=O,AC50,[13],31.2 µM (active)
CCCC#Cc1ccc2c(c1)O[C@@H](CN(C)S(=O)(=O)c1cccc(F)c1)[C@@H](C)CN([C@@H](C)CO)S2(=O)=O,AC50,[14],4.98 µM (active)
same,AC50,[15],3.62 µM (active)
same,AC50,[16],13.3 µM (active)
Clc1ccc(/C(Cc2nc3ccccc3[nH]2)=N\Nc2ccccc2)cc1,CC50,[1],> 40 µM (active)
COc1ccccc1-c1ccccc1[C@@H]1[C@@H](C#N)N(C(=O)C2CC2)[C@@H]1CO,AC50,[17],17.4 µM (active)
COc1ccc(NC(=O)N(C)C[C@@H]2Oc3cc(-c4ccc(C)cc4)ccc3S(=O)(=O)N([C@@H](C)CO)C[C@@H]2C)cc1,AC50,[17],3.21 µM (active)
O=C(N/N=C/c1cc(Br)c(O)c(Br)c1O)c1cccnc1,AC50,Caspase-6,22.9 µM (active)
same,IC50,Nonstructural protein 1,15.5 µM (active)
